Source: patent EP4800006A1, “NICOTINAMIDE PHOSPHORIBOSYL TRANSFERASE AGONIST AND USE THEREOF” (Nanjing Reju Therapeutics Co. Ltd., priority 2023, dated 2025)
In brackets after ≈: the same amount, converted by molar mass.

Columns and labels:
Solubility of compounds = assay type: physicochemical; conditions: acidic pH conditions
Method: The main objective of this example is to investigate the solubility of the compounds in Example 1.
Method: A certain amoun of NPL-00, NPL-000, and NPL-1 were weighed and transferred into centrifuge tubes, respectively. Solvent was added to each tube, and the pH value of the system was adjusted with hydrochloric acid and sodium hydroxide. The mixture was shaken for 30 s every 5 min, and the dissolution state was observed within 30 min. If incomplete dissolution was observed, additional solvent was supplemented, and the above operations were repeated until the compounds were completely dissolved, and the volume of solvent at this moment was recorded. The solubility of less than 0.1 mg/mL was defined as "insoluble."

Hacat cells = test: ROS in UVA-irradiated Hacat cells (DCFH-DA fluorescence), antioxidation; assay type: cell-based; conditions: 10 µM, 24 h then UVA, vs model group, FIG. 8
Method: The main objective of this example is to investigate the antioxidation effect of the compounds in Example 1.
Method: Hacat cells were selected and seeded into culture plates. After stabilization for 24 h, the NPL-1 group was treated with 10 µM NPL-1, while the control group and model group were treated with an equivalent volume of the compound solvent, respectively. After 24 h of treatment, all groups except the control group were irradiated with UVA for modeling. At 0.5 h after the modeling was completed, the fluorescent probe DCFH-DA was added and incubated for 0.5 h, followed by fluorescence intensity measurement to evaluate the expression level of ROS.

C2C12 cells = test: Differentiation of C2C12 cells (MYH1 immunostaining); assay type: cell-based; conditions: 0.3 µM, 7 days, medium with 2% HBS, vs control group; FIG. 4
Method: The main objective of this example is to investigate the promotive effect of the compounds in Example 1 on the differentiation of muscle stem cells.
Method: C2C12 cells were selected and seeded into culture plates. After stabilization for 48 h, the medium was replaced with a medium containing 2% HBS to induce differentiation of the C2C12 cells. Meanwhile, the treatment group was treated with 0.3 µM NPL-1, while the control group was treated with an equivalent volume of the compound solvent. After continuous culture for 7 days, immunohistochemical staining was performed using MYH1 antibody, and the cell nuclei were stained with DAPI. Finally, the two channels were merged to analyze the degree of cell differentiation.

mouse skin = test: NAD+ level in mouse skin after topical application; assay type: in vivo, C57BL/6 mice; conditions: 3% topical application to the skin, 6 hours, compared to the control group; FIG. 3
Method: The main objective of this example is to investigate the effect of the Compound NPL-1 in Example 1 on elevating NAD+ level in mouse skin via topical administration.
Method: Male C57BL/6 mice with 8-9 weeks old were treated with 3% of the Compound NPL-1 via topical application to the skin, and mouse skin samples were collected 6 hours later for NAD+ level detection.

U2OS cells = test: Protective effect on U2OS cells against FK866-induced cytotoxicity (Cell Titer-Glo viability); assay type: cell-based; conditions: Homo sapiens, 10 nM FK866, test compound 10 µM, 72 h, viability relative to control minus that of model group, read-out: Percentage increase in cell viability
Method: The main objective of this example is to investigate the protective effects of the compounds in Example 1 against the cytotoxicity resulting from FK866-mediated reduction in NAD+ levels.
Method: U2OS cells were selected and seeded into culture plates. After cell stabilization for 1 day, 10 nM of FK866 was added to all groups except the control group to induce cell death. Meanwhile, the test compounds at a concentration of 10 µM were added to the corresponding drug treatment groups, respectively. An equivalent volume of the compound solvent was added to the control group and the model group, respectively. Following incubation for 72 h, Cell Titer-Glo Luminescent cell viability assay reagent (manufacturer: Promega) was added to each well. After mixing well and incubation for 10 minutes, luminescence was detected using a microplate reader with full-wavelength scanning. The pharmacological efficacy of the compounds, expressed as the percentage increase in cell viability, was calculated by subtracting the percentage of the cell viability in the model group relative to the control group from the percentage of the cell viability in the compound-treated group relative to the control group.

[1] = tested on: Transgenic zebrafish with green fluorescent mitochondria; test: Mitochondrial function in zebrafish, cobalt chloride model; assay type: in vivo; conditions: 0.25%, 22 h then cobalt chloride 4 h, vs model group; FIG. 10
Method: The main objective of this example is to investigate the effect of the compounds in Example 1 on mitochondrial function.
Method: Transgenic zebrafish with green fluorescent mitochondria were placed in a 6-well plate. The NPL-4 group was treated with NPL-4 at a concentration of 0.25%, while the control group and model group were treated with an equivalent volume of the compound solvent. After treatment in the dark for 22 h, all groups except the control group were treated with cobalt chloride for modeling. Following incubation in the dark for additional 4 h, the fluorescence intensity of the zebrafish was detected.

tibialis anterior = test: CTX-induced muscle injury model (tibialis anterior, HE staining); assay type: in vivo, C57BL/6 mice; conditions: 3 mg/kg intraperitoneal once daily, 10 µM CTX into tibialis anterior, vs model group; FIG. 5
Method: The main objective of this example is to investigate the protective effect of the compounds in Example 1 in a muscle injury model. Method: Male C57BL/6 mice with 8-9 weeks old in the model group and the NPL-4 group were injected intraperitoneally with the corresponding solvent or compounds, respectively, for 1 consecutive week. Subsequently, 10 µM CTX was injected into the tibialis anterior for modeling. After another 7 days, the tibialis anterior was harvested for HE staining to evaluate the injury status of the tibialis anterior of the mice. The grouping was as follows: • Control group: 8 male C57BL/6 mice with 8-9 weeks old were treated with the same solvent as in the NPL-4 group via intraperitoneal injection once daily. One week later, normal saline was injected into the tibialis anterior for modeling, while intraperitoneal injection was continued. Seven days later, the tibialis anterior was harvested for HE staining. • Model group: 8 male C57BL/6 mice with 8-9 weeks old were treated with the same solvent as in the NPL-4 group via intraperitoneal injection once daily. One week later, 10 µM CTX was injected into the tibialis anterior for modeling, while intraperitoneal injection was continued. […]

Wild-type zebrafish = test: DNA damage repair in zebrafish, hydrogen peroxide model (comet assay); assay type: in vivo; conditions: 0.25% for 5 days, DNA olive tail moment, vs model group, FIG. 11
Method: The main objective of this example is to investigate the repairing effect of the compounds in Example 1 on DNA damage.
Method: Wild-type zebrafish were placed in a 6-well plate. All groups except the control group were treated with hydrogen peroxide to establish a zebrafish DNA damage model. Meanwhile, the NPL-4 group was treated with 0.25% NPL-4 for 5 days, while the control group and model group were treated with an equivalent volume of the compound solvent. The medium was renewed daily. Subsequently, zebrafish samples were collected and ground to prepare cell suspensions. Electrophoresis was performed using a comet assay kit, and data were collected and analyzed using comet analysis software. The DNA olive tail moment value of zebrafish cells was analyzed to evaluate the degree of DNA damage.

HSF cells = test: p16 mRNA in UVA-irradiated HSF cells (qPCR), anti-aging; assay type: cell-based; conditions: 10 µM, 24 h then UVA, mRNA by qPCR, vs model group; FIG. 7
Method: The main objective of this example is to investigate the anti-aging effect of the compounds in Example 1.
Method: HSF cells were selected and seeded into culture plates. After stabilization for 24 h, the NPL-4 group was treated with 10 µM NPL-4, while the control group and model group were treated with an equivalent volume of the compound solvent, respectively. After 24 h of treatment, all groups except the control group were irradiated with UVA to induce cell senescence. The cells were then collected and RNA was extracted. The mRNA level of the senescence-associated gene p16 was determined using qPCR.

CC(C)(C)c1cccc(C#N)c1OCC(=O)Nc1ccc(O)cc1 [NPL-000]
solubility (Solubility of compounds): < 100 µg/mL

CC(C)(C)c1ccccc1OCC(=O)Nc1ccc(O)cc1 [NPL-00]
solubility (Solubility of compounds): < 100 µg/mL

CC(C)(C)c1ncccc1OCC(=O)Nc1ccc(O)cc1 [NPL-1]
solubility (Solubility of compounds): 7000 µg/mL (≈ 23.3 mM)
expression level of ROS (Hacat cells): markedly decreased
expression level of MYH1 (C2C12 cells): significantly higher
NAD+ level in the mouse skin (mouse skin): effectively elevated

CC(=O)Nc1ccc(NC(=O)COc2cccnc2C(C)(C)C)cc1 [NPL-4]
increase in cell viability over FK866 model group at 10 µM (U2OS cells): 128%
mitochondrial fluorescence intensity [1]: significantly enhanced
damaged area (tibialis anterior): significantly smaller
DNA damage (Wild-type zebrafish): significantly ameliorated
expression of p16 (HSF cells): markedly down-regulated

CC(C)(C)c1ncncc1CCC(=O)Nc1ccc(O)cc1 [NPL-51, 3-(4-(tert-butyl)pyrimidin-5-yl)-N-(4-hydroxyphenyl)propionamide]
increase in cell viability over FK866 model group at 10 µM (U2OS cells): 105%

CC(=O)Nc1ccc(NC(=O)CCc2nccnc2C(C)(C)C)cc1 [NPL-67, N-(4-acetaminophenyl)-3-(3-(tert-butyl)pyrazin-2-yl)propionamide]
increase in cell viability over FK866 model group at 10 µM (U2OS cells): 99.3%

CC(=O)Nc1ccc(NC(=O)COc2nccnc2C(C)(C)C)cc1 [NPL-70, N-(4-acetaminophenyl)-2-((3-(tert-butyl)pyrazin-2-yl)oxy)acetamide]
increase in cell viability over FK866 model group at 10 µM (U2OS cells): 112%

CC(C)(C)c1nccnc1OCC(=O)Nc1ccc2[nH]c(=O)oc2c1 [NPL-71, 2-((3-(tert-butyl)pyrazin-2-yl)oxy)-N-(2-oxo-2,3-dihydrobenzo[d]oxazol-6-yl)acetamide]
increase in cell viability over FK866 model group at 10 µM (U2OS cells): 106%

CC(C)(C)c1nccnc1CCC(=O)Nc1ccc(O)cc1 [NPL-74, 3-(3-(tert-butyl)pyrazin-2-yl)-N-(4-hydroxyphenyl)propionamide]
increase in cell viability over FK866 model group at 10 µM (U2OS cells): 98.6%

CC(C)(C)c1nccnc1CCC(=O)Nc1ccc2[nH]c(=O)oc2c1 [NPL-76, 3-(3-(tert-butyl)pyrazin-2-yl)-N-(2-oxo-2,3-dihydrobenzo[d]oxazol-6-yl)propionamide]
increase in cell viability over FK866 model group at 10 µM (U2OS cells): 99%

CC(=O)Nc1ccc(NC(=O)COc2ncncc2C(C)(C)C)cc1 [NPL-79, 2-((5-(tert-butyl)pyrimidin-4-yl)oxy)-N-(4-(acetamido)phenyl)acetamide]
increase in cell viability over FK866 model group at 10 µM (U2OS cells): 97.9%
